Laboratory results reported in ChEMBL document CHEMBL3046890, “Synthesis and Herbicidal Activity of Sulfonylureas; SL-950 and Its Related Compounds” (1995).

Assays:
Format in all cases: functional
Avena fatua = assay: Post-emergence herbicidal activity against three-leaf stage Avena fatua assessed as efficacy of weed growth control at 80 g ai/ha under greenhouse conditions
Abutilon theophrasti [1] = assay: Post-emergence herbicidal activity against one-leaf stage Abutilon theophrasti (velvetleaf) assessed as efficacy of weed growth control at 80 g ai/ha under greenhouse conditions
Senna tora [2] = assay: Post-emergence herbicidal activity against one-leaf stage Senna tora assessed as efficacy of weed growth control at 750 g ai/ha under greenhouse conditions
Sorghum halepense [3] = assay: Post emergence herbicidal activity against four to five-leaf stage Sorghum halepense (Johnson grass) assessed as efficacy of weed growth control at 40 g ai/ha under greenhouse conditions
Persicaria lapathifolia [4] = assay: Post-emergence herbicidal activity against three-leaf stage Persicaria lapathifolia assessed as efficacy of weed growth control at 80 g ai/ha under greenhouse conditions
Galinsoga quadriradiata [5] = assay: Post-emergence herbicidal activity against four-leafstage of Galinsoga quadriradiata assessed as efficacy of weed growth control at 60 g ai/ha under greenhouse conditions
Digitaria sanguinalis [6] = assay: Post-emergence herbicidal activity against two-leaf stage Digitaria sanguinalis (hairy crabgrass) assessed as efficacy of weed growth control at 750 g ai/ha under greenhouse conditions
Sorghum halepense [7] = assay: Post emergence herbicidal activity against four to five-leaf stage Sorghum halepense (Johnson grass) assessed as efficacy of weed growth control at 80 g ai/ha under greenhouse conditions
Senna tora [8] = assay: Post-emergence herbicidal activity against one-leaf stage Senna tora assessed as efficacy of weed growth control at 60 g ai/ha under greenhouse conditions
Abutilon theophrasti [9] = assay: Post-emergence herbicidal activity against one-leaf stage Abutilon theophrasti (velvetleaf) assessed as efficacy of weed growth control at 40 g ai/ha under greenhouse conditions
Portulaca oleracea = assay: Post-emergence herbicidal activity against three-leaf stage Portulaca oleracea assessed as efficacy of weed growth control at 750 g ai/ha under greenhouse conditions
Galinsoga quadriradiata [10] = assay: Post-emergence herbicidal activity against four-leafstage of Galinsoga quadriradiata assessed as efficacy of weed growth control at 80 g ai/ha under greenhouse conditions
Solanum nigrum [11] = assay: Post emergence herbicidal activity against four-leaf stage Solanum nigrum (black nightshade) assessed as efficacy of weed growth control at 40 g ai/ha under greenhouse conditions
Solanum nigrum [12] = assay: Post emergence herbicidal activity against four-leaf stage Solanum nigrum (black nightshade) assessed as efficacy of weed growth control at 60 g ai/ha under greenhouse conditions
Echinochloa crus-galli [13] = assay: Post-emergence herbicidal activity against three-leaf stage Echinochloa crus-galli (barnyard grass) assessed as efficacy of weed growth control at 80 g ai/ha under greenhouse conditions
Setaria viridis [14] = assay: Post-emergence herbicidal activity against two-leaf stage Setaria viridis (green foxtail) assessed as efficacy of weed growth control at 40 g ai/ha under greenhouse conditions
Setaria viridis [15] = assay: Post-emergence herbicidal activity against two-leaf stage Setaria viridis (green foxtail) assessed as efficacy of weed growth control at 80 g ai/ha under greenhouse conditions
Chenopodium album [16] = assay: Post-emergence herbicidal activity against two-leaf stage Chenopodium album assessed as efficacy of weed growth control at 60 g ai/ha under greenhouse conditions
Capsella bursa-pastoris [17] = assay: Post-emergence herbicidal activity against four-leaf stage Capsella bursa-pastoris assessed as efficacy of weed growth control at 80 g ai/ha under greenhouse conditions
Cyperus rotundus = assay: Post-emergence herbicidal activity against four to five-leaf stage Cyperus rotundus assessed as efficacy of weed growth control at 750 g ai/ha under greenhouse conditions
Echinochloa crus-galli [18] = assay: Post emergence herbicidal activity against three-leaf stage Echinochloa crus-galli (barnyard grass) assessed as efficacy of weed growth control at 40 g ai/ha under greenhouse conditions
Chenopodium album [19] = assay: Post emergence herbicidal activity against two-leaf stage Chenopodium album assessed as efficacy of weed growth control at 40 g ai/ha under greenhouse conditions
Persicaria longiseta = assay: Post-emergence herbicidal activity against Persicaria longiseta assessed as inhibition of weed growth at 125 g ai/ha measured 22 to 37 days after compound application under greenhouse conditions; details: read-out: GI
Amaranthus viridis = assay: Post-emergence herbicidal activity against three-leaf stage Amaranthus viridis assessed as efficacy of weed growth control at 40 g ai/ha under greenhouse conditions
Digitaria sanguinalis [20] = assay: Post-emergence herbicidal activity against two-leaf stage Digitaria sanguinalis (hairy crabgrass) assessed as efficacy of weed growth control at 40 g ai/ha under greenhouse conditions
Setaria viridis [21] = assay: Post-emergence herbicidal activity against two-leaf stage Setaria viridis (green foxtail) assessed as efficacy of weed growth control at 750 g ai/ha under greenhouse conditions
Sida spinosa = assay: Post-emergence herbicidal activity against two-leaf stage Sida spinosa assessed as efficacy of weed growth control at 750 g ai/ha under greenhouse conditions
Eleusine indica [22] = assay: Post emergence herbicidal activity against three-leaf stage Eleusine indica assessed as efficacy of weed growth control at 40 g ai/ha under greenhouse conditions
Digitaria sanguinalis [23] = assay: Post-emergence herbicidal activity against two-leaf stage Digitaria sanguinalis (hairy crabgrass) assessed as efficacy of weed growth control at 80 g ai/ha under greenhouse conditions
Eleusine indica [24] = assay: Post-emergence herbicidal activity against three-leaf stage Eleusine indica assessed as efficacy of weed growth control at 80 g ai/ha under greenhouse conditions
Zea mays = assay: Post emergence phyototoxic activity against Zea mays (maize) plants assessed as inhibition of plant growth at 125 g ai/ha measured 22 to 37 days after compound application under greenhouse conditions; details: read-out: GI
Galinsoga quadriradiata [25] = assay: Post-emergence herbicidal activity against four-leafstage of Galinsoga quadriradiata assessed as efficacy of weed growth control at 40 g ai/ha under greenhouse conditions
Cynodon dactylon = assay: Post-emergence herbicidal activity against 15 cm leaf stage Cynodon dactylon assessed as efficacy of weed growth control at 40 g ai/ha under greenhouse conditions
Capsella bursa-pastoris [26] = assay: Post-emergence herbicidal activity against four-leafstage Capsella bursa-pastoris assessed as efficacy of weed growth control at 60 g ai/ha under greenhouse conditions
Galinsoga quadriradiata [27] = assay: Post-emergence herbicidal activity against four-leafstage of Galinsoga quadriradiata assessed as efficacy of weed growth control at 750 g ai/ha under greenhouse conditions
Setaria viridis [28] = assay: Post-emergence herbicidal activity against two-leaf stage Setaria viridis (green foxtail) assessed as efficacy of weed growth control at 60 g ai/ha under greenhouse conditions
Persicaria lapathifolia [29] = assay: Post-emergence herbicidal activity against three-leaf stage Persicaria lapathifolia assessed as efficacy of weed growth control at 40 g ai/ha under greenhouse conditions
Sorghum halepense [30] = assay: Post emergence herbicidal activity against four to five-leaf stage Sorghum halepense (Johnson grass) assessed as efficacy of weed growth control at 750 g ai/ha under greenhouse conditions
Xanthium strumarium = assay: Post emergence herbicidal activity against Xanthium strumarium (cocklebur) assessed as inhibition of weed growth at 125 g ai/ha measured 22 to 37 days after compound application under greenhouse conditions; details: read-out: GI
Cyperus microiria = assay: Post-emergence herbicidal activity against three-leaf stage Cyperus microiria assessed as efficacy of weed growth control at 40 g ai/ha under greenhouse conditions
Commelina communis = assay: Post emergence herbicidal activity against two-leaf stage Commelina communis (Asiatic dayflower) assessed as efficacy of weed growth control at 60 g ai/ha under greenhouse conditions

COc1cc(OC)nc(NC(=O)NS(=O)(=O)c2ncccc2C(=O)N(C)C)n1 [NICOSULFURON]
95%: Efficacy (Avena fatua) | Efficacy (Persicaria lapathifolia [4]) | Efficacy (Galinsoga quadriradiata [5]) | Efficacy (Sorghum halepense [7]) | Efficacy (Portulaca oleracea) | Efficacy (Galinsoga quadriradiata [10]) | Efficacy (Echinochloa crus-galli [13]) | Efficacy (Setaria viridis [14]) | Efficacy (Setaria viridis [15]) | Efficacy (Capsella bursa-pastoris [17]) | Efficacy (Echinochloa crus-galli [18]) | Efficacy (Amaranthus viridis) | Efficacy (Sida spinosa) | Efficacy (Eleusine indica [22]) | Efficacy (Digitaria sanguinalis [23]) | Efficacy (Eleusine indica [24]) | Efficacy (Capsella bursa-pastoris [26]) | Efficacy (Galinsoga quadriradiata [27]) | Efficacy (Setaria viridis [28]) | Efficacy (Cyperus microiria) | Efficacy (Commelina communis)
0%: inhibition of growth at 125 g/ha (Zea mays)
50%: Efficacy (Senna tora [8]) | Efficacy (Abutilon theophrasti [9]) | Efficacy (Solanum nigrum [11]) | Efficacy (Solanum nigrum [12]) | Efficacy (Cyperus rotundus) | Efficacy (Chenopodium album [19])
<50%: Efficacy (Senna tora [2]) | Efficacy (Digitaria sanguinalis [6]) | Efficacy (Cynodon dactylon) | Efficacy (Sorghum halepense [30])
100%: inhibition of growth at 125 g/ha (Persicaria longiseta) | inhibition of growth at 125 g/ha (Xanthium strumarium)
70%: Efficacy (Abutilon theophrasti [1]) | Efficacy (Sorghum halepense [3]) | Efficacy (Chenopodium album [16]) | Efficacy (Digitaria sanguinalis [20]) | Efficacy (Setaria viridis [21]) | Efficacy (Galinsoga quadriradiata [25]) | Efficacy (Persicaria lapathifolia [29])
